Measured values from patent US9963452B2, “Methods, compounds, and compositions for inhibition of ROS” (AUGUSTA PHARMACEUTICALS INC., priority 2013, dated 2018).
Like-named read-outs stand apart in the source and are kept apart here.

Assays:
[1] = system: U87 glioblastoma cell line; test: In-vitro cell survival assay (Alamar blue), U87; type: cell-based; details: U87, one day after compound addition
Outline: (§1)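 Cells seeded at 2-5×10^3 per well, grown 2 days, then exposed to compound at 100, 10 or 1 uM (0.5% DMSO final) for one day. Alamar blue redox dye read as proliferation/viability, normalized to vehicle wells as percent decrease and converted to EC50.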

[2] = system: LN18 glioblastoma cell line; test: In-vitro cell survival assay (Alamar blue), LN18; type: cell-based; details: LN18, one day after compound addition
Outline: as §1

[3] = system: U118 glioblastoma cell line; test: In-vitro cell survival assay (Alamar blue), U118; type: cell-based; details: U118, one day after compound addition
Protocol: Five tumor-derived cell lines were treated with the ROS inhibitor compounds and cell survival was monitored to determine the cancer prohibition effects of the compounds. The cell lines included HeLa, a cervical cancer cell line, and four glioblastoma cell lines U138, U87, LN18, and U118. The basic protocol for the in-vitro cell survival assay is the same for all five cell lines. In particular, the cells were seeded in 96-well plates at 2-5×10^3 cells/well (cell line dependent) in culture medium. The cells were grown for 2 days before the compounds were dissolved in DMSO and added to final concentrations of 100 uM, 10 uM, or 1 uM (DMSO final concentration 0.5%). The cell culture was then assayed one day after the addition of the compounds. The assay used Alamar blue as a redox-sensitive dye that interrogates mitochondrial fitness of cells, and these assays provided a readout for cell proliferation and viability. The raw values were normalized to an average of several vehicle control wells and are presented as percent decrease in proliferation/viability, which is converted to half maximal effective concentration (EC50) values.

[4] = system: HeLa cervical cancer cell line; test: In-vitro cell survival assay (Alamar blue), HeLa; type: cell-based; details: one day after compound addition
Outline: as §1

[5] = system: U138 glioblastoma cell line; test: In-vitro cell survival assay (Alamar blue), U138; type: cell-based; details: U138, one day after compound addition
Outline: as §1

[6] = target: T1, EGFR (Homo sapiens, UniProt P00533); test: In vitro EGFR enzymatic reaction assay (HTRF, Cisbio); type: biochemical
T1 construct: ROS or EGFR enzyme, 0.008 ng/ul

[7] = target: T2, ROS (Homo sapiens, UniProt P08922); test: In vitro ROS enzymatic reaction assay (HTRF, Cisbio); type: biochemical; parameters: ROS or EGFR enzyme, 0.008 ng/ul; details: for inhibition at 5 µM: ROS kinase, compound at 5 uM, read-out: Kinase Inhib. 5 uM (%)
Protocol: The ROS enzymatic reactions were carried out with a high throughput screening platform for phosphor-detection of kinase activity. This platform based on homogeneous time resolved fluorescence (HTRF) technology from Cisbio Bioassays, Inc. (Cisbio). […] The reaction was allowed to proceed for 30 minutes at room temperature. An equal volume of detection buffer was then added to the reaction mix.

[8] = target: T2, ROS; details: reported in background; cited from earlier work

T1 sequence (P00533 25-1210, species assumed): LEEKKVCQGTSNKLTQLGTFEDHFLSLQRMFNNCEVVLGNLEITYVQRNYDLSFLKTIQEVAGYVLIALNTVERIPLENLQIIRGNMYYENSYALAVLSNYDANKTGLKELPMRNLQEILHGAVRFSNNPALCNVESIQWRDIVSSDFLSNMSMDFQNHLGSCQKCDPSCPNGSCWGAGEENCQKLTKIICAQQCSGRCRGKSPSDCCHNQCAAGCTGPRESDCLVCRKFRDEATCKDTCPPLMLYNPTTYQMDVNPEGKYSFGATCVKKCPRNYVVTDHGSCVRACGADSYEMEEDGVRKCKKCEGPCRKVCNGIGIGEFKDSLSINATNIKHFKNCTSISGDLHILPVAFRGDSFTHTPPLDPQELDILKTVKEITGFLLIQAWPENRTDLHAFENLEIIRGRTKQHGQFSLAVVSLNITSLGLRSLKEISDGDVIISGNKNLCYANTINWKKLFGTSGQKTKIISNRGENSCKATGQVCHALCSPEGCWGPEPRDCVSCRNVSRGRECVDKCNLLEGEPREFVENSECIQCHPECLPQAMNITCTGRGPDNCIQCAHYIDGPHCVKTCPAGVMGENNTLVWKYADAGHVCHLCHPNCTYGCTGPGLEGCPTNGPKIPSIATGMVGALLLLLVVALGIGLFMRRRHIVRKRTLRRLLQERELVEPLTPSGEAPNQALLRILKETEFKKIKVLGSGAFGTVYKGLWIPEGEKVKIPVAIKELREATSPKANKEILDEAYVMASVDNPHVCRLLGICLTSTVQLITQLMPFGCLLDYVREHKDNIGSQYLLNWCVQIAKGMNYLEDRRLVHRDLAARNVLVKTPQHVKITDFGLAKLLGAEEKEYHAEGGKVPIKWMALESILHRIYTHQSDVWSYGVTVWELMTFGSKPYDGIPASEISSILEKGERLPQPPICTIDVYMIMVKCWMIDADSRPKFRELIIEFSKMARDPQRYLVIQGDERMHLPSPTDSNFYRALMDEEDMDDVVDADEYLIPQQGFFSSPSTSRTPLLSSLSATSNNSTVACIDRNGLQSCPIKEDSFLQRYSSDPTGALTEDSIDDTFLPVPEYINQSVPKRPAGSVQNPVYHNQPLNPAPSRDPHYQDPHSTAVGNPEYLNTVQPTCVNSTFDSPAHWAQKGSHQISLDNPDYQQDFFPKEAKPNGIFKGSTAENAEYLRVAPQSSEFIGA
T2 sequence (P08922 28-2347): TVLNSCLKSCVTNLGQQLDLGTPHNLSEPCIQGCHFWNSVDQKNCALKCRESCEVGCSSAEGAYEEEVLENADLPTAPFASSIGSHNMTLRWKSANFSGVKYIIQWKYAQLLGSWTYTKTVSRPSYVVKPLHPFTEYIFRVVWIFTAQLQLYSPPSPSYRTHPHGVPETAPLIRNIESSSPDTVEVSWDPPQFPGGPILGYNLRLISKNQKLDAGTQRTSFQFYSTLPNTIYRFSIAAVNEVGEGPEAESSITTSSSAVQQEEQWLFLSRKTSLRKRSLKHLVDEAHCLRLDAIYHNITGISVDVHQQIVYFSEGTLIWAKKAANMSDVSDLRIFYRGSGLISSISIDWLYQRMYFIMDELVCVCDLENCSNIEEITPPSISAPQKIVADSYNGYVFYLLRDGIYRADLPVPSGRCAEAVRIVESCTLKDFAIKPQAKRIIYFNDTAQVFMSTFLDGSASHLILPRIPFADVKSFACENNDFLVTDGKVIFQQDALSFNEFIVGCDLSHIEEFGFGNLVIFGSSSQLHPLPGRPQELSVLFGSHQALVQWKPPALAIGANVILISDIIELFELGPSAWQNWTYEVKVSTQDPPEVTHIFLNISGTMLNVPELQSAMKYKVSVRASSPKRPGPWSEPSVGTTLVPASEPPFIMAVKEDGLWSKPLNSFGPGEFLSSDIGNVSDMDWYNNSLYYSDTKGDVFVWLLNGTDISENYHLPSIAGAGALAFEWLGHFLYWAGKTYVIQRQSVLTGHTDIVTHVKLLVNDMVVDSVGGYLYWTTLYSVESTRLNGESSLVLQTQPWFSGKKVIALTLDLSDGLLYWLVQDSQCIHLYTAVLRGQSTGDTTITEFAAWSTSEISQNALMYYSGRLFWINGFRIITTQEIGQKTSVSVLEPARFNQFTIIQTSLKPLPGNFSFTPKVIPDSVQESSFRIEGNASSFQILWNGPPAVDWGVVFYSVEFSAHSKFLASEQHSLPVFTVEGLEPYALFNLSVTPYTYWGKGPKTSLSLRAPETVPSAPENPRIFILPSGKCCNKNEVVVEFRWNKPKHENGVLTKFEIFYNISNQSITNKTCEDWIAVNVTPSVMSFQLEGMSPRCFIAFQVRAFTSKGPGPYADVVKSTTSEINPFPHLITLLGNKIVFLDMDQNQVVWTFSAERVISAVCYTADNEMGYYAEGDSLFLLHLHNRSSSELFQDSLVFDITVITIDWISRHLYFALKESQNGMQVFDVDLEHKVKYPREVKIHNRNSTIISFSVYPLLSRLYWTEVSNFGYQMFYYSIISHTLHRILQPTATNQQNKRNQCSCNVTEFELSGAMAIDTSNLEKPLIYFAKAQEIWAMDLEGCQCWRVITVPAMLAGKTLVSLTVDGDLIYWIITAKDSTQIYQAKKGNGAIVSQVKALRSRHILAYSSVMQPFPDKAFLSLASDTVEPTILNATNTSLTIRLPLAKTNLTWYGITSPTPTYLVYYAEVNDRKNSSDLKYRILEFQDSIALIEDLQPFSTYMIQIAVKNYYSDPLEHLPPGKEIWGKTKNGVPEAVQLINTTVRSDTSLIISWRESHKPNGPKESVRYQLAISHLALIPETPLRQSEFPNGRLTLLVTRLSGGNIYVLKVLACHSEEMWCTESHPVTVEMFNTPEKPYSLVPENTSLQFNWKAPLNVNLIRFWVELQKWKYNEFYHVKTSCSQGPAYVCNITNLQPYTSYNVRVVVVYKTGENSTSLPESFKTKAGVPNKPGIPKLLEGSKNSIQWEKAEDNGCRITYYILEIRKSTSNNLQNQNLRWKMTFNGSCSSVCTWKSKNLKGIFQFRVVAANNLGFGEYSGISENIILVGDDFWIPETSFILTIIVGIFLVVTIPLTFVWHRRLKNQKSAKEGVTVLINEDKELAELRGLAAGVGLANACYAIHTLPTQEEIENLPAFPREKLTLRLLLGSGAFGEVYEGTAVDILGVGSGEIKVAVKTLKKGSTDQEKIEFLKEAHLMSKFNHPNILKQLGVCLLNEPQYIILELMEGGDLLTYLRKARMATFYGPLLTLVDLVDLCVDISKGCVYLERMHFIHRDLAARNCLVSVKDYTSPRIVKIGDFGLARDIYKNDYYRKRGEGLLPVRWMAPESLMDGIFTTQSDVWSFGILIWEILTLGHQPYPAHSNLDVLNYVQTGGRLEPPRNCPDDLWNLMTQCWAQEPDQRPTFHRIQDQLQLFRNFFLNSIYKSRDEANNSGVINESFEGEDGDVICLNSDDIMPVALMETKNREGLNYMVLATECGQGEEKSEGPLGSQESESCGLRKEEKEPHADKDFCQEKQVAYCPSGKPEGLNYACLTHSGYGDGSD

Structure (SMILES): COc1ccc(C(NC(=O)c2[nH]nc(-c3ccccc3)c2C)c2ccncc2)cc1 (stereo not drawn)
- EC50 [1]: > 100 µM
- EC50 [2]: 59 µM
- EC50 [3]: > 100 µM
- EC50 [4]: > 100 µM
- EC50 [5]: > 100 µM

Structure (SMILES): COc1ccc(C2=CCNCC2)cc1Nc1nccc(Nc2ccc3ncsc3c2)n1 [drawing 330]
- IC50 [6]: 0.802 µM
- IC50 [7]: 0.003 µM
- inhibition at 5 µM [7]: 100%

Structure (SMILES): CC(C)(C)c1cc(C(=O)NNc2cccc(Cl)c2)n(Cc2ccccc2)n1 [drawing 389]
- EC50 ([1]; 24 h): 50 µM
- EC50 ([2]; Homo sapiens, LN-18, 24 h): > 100 µM
- EC50 ([3]; 24 h): > 100 µM
- EC50 ([4]; Homo sapiens, 24 h): > 100 µM
- EC50 ([5]; 24 h): > 100 µM

Structure (SMILES): Cc1cc(O)cc(-c2nn(CC#N)cc2-c2ccnc(-c3cccnc3)c2)c1 [KIST301080]
- IC50 [8]: 0.209 µM

Structure (SMILES): Nc1nc(Nc2ccc(C(=O)N3CCC[C@H]4CCCC[C@H]43)cc2)cc(Nc2ccc3ncsc3c2)n1
- EC50 ([1]; 24 h): 30 µM
- EC50 ([2]; Homo sapiens, LN-18, 24 h): 14 µM
- EC50 ([3]; 24 h): > 100 µM
- EC50 ([4]; Homo sapiens, 24 h): 58 µM
- EC50 ([5]; 24 h): > 100 µM

Structure (SMILES): CSc1sc(-c2n[nH]cc2Br)c2c1C(=O)CC(C)(C)C2 [drawing 396]
- EC50 [1]: 18 µM
- EC50 [2]: 94 µM
- EC50 [3]: > 100 µM
- EC50 [4]: > 100 µM
- EC50 [5]: > 100 µM

Structure (SMILES): Cc1[nH]c2nc(NCc3cccc([N+](=O)[O-])c3)nn2c(=O)c1Cc1ccccc1 [drawing 359]
- EC50 ([1]; 24 h): 45 µM
- EC50 ([2]; Homo sapiens, LN-18, 24 h): > 100 µM
- EC50 ([3]; 24 h): > 100 µM
- EC50 ([4]; Homo sapiens, 24 h): > 100 µM
- EC50 ([5]; 24 h): > 100 µM

Structure (SMILES): COc1ccc(Nc2nc(N(C)CCO)nc3c2cnn3-c2ccccc2)cc1 [drawing 387]
- EC50 ([1]; 24 h): 11 µM
- EC50 ([2]; Homo sapiens, LN-18, 24 h): 6 µM
- EC50 ([3]; 24 h): 8 µM
- EC50 ([4]; Homo sapiens, 24 h): 7 µM
- EC50 ([5]; 24 h): 9 µM

Structure (SMILES): Cc1cccc(Nc2ccnc(Nc3cccc(C(=O)N4CC=CCC4)c3)n2)c1 [drawing 371]
- EC50 ([1]; 24 h): 17 µM
- EC50 ([2]; Homo sapiens, LN-18, 24 h): 13 µM
- EC50 ([3]; 24 h): 28 µM
- EC50 ([4]; Homo sapiens, 24 h): 25 µM
- EC50 ([5]; 24 h): > 100 µM

Structure (SMILES): Nc1nc(Nc2ccc(C(=O)N3CCCCCC3)cc2)cc(Nc2ccc3ncsc3c2)n1 [drawing 409]
- EC50 ([1]; 24 h): 25 µM
- EC50 ([2]; Homo sapiens, LN-18, 24 h): 14 µM
- EC50 ([3]; 24 h): > 100 µM
- EC50 ([4]; Homo sapiens, 24 h): 50 µM
- EC50 ([5]; 24 h): > 100 µM

Structure (SMILES): CCC(C)(C)NC(=O)c1cccc(Nc2nccc(Nc3ccc4ncsc4c3)n2)c1 [drawing 380]
- EC50 ([1]; 24 h): 22 µM
- EC50 ([2]; Homo sapiens, LN-18, 24 h): 15 µM
- EC50 ([3]; 24 h): 15 µM
- EC50 ([4]; Homo sapiens, 24 h): 8 µM
- EC50 ([5]; 24 h): 46 µM

Structure (SMILES): Brc1cccc(Nc2nccc(Nc3ccc4ncsc4c3)n2)c1 [drawing 305]
- IC50 [6]: > 5 µM
- IC50 [7]: 0.017 µM
- inhibition at 5 µM [7]: 90%

Structure (SMILES): CCN(CCO)c1nc(Nc2ccc(F)cc2)c2cnn(-c3ccccc3)c2n1 [drawing 386]
- EC50 ([1]; 24 h): 10 µM
- EC50 ([2]; Homo sapiens, LN-18, 24 h): 7 µM
- EC50 ([3]; 24 h): 58 µM
- EC50 ([4]; Homo sapiens, 24 h): 54 µM
- EC50 ([5]; 24 h): 57 µM

Structure (SMILES): Cc1ccc(Cn2c(NCc3nc4ccccc4n3C)nc3ccccc32)cc1 [drawing 355]
- EC50 ([1]; 24 h): > 100 µM
- EC50 ([2]; Homo sapiens, LN-18, 24 h): > 100 µM
- EC50 ([3]; 24 h): > 100 µM
- EC50 ([4]; Homo sapiens, 24 h): > 100 µM
- EC50 ([5]; 24 h): > 100 µM

Structure (SMILES): Cc1ccc(-n2cc(-c3cccs3)nc2SCc2n[nH]c(=S)n2Cc2ccccc2)cc1 [drawing 393]
- EC50 [1]: 24 µM
- EC50 [2]: > 100 µM
- EC50 [3]: > 100 µM
- EC50 [4]: > 100 µM
- EC50 [5]: > 100 µM

Structure (SMILES): Cc1ccc(F)cc1S(=O)(=O)Nc1cccc(C(=O)OCC(=O)NC2CCCCC2)c1 [drawing 404]
- EC50 ([1]; 24 h): 33 µM
- EC50 ([2]; Homo sapiens, LN-18, 24 h): > 100 µM
- EC50 ([3]; 24 h): > 100 µM
- EC50 ([4]; Homo sapiens, 24 h): > 100 µM
- EC50 ([5]; 24 h): > 100 µM

Structure (SMILES): Nc1cccc(C2CCN(c3nccc(Nc4ccc5ncsc5c4)n3)CC2)c1 [drawing 302]
- IC50 [6]: 4.7 µM
- IC50 [7]: 0.048 µM
- inhibition at 5 µM [7]: 101%

Structure (SMILES): c1cc(Nc2cc(C3CC3)[nH]n2)nc(Nc2ccc(NCc3cc(C4OCCO4)c(C4OCCO4)s3)cc2)n1 [drawing 300]
- IC50 [6]: > 50 µM
- IC50 [7]: 1.14 µM
- inhibition at 5 µM [7]: 79.3%

Structure (SMILES): NCC1CCN(C(=O)c2cccc(Nc3ncc(Cl)c(Nc4ccc5ncsc5c4)n3)c2)CC1 [drawing 333]
- IC50 [6]: > 5 µM
- IC50 [7]: 0.11 µM
- inhibition at 5 µM [7]: 100%

Structure (SMILES): O=C(O)c1ccc(Nc2ncc(Cl)c(Nc3ccc4ncsc4c3)n2)cc1 [drawing 308]
- IC50 [6]: 2.4 µM
- IC50 [7]: 0.037 µM
- inhibition at 5 µM [7]: 101%

Structure (SMILES): NCC1CCN(C(=O)c2ccc(Nc3ncc(Cl)c(Nc4ccc5ncsc5c4)n3)cc2)CC1 [drawing 326]
- IC50 [6]: > 5 µM
- IC50 [7]: 0.368 µM
- inhibition at 5 µM [7]: 100%
